Test results: US20250339445A1, “Modulators of Orphan Nuclear Receptors for Treating Pancreatitis, Glioblastoma, Sarcopenia and Stroke” (Emory University, priority 2020, published 2025)
Entries after “also recorded” stand apart in the source; their conditions may differ.

Target: T1, RORα (Homo sapiens, UniProt P35398)
T1 construct: endogenous in cells; host or cells: Huh-7 (Huh7) human hepatocellular carcinoma cells
T1 sequence (P35398 1-523): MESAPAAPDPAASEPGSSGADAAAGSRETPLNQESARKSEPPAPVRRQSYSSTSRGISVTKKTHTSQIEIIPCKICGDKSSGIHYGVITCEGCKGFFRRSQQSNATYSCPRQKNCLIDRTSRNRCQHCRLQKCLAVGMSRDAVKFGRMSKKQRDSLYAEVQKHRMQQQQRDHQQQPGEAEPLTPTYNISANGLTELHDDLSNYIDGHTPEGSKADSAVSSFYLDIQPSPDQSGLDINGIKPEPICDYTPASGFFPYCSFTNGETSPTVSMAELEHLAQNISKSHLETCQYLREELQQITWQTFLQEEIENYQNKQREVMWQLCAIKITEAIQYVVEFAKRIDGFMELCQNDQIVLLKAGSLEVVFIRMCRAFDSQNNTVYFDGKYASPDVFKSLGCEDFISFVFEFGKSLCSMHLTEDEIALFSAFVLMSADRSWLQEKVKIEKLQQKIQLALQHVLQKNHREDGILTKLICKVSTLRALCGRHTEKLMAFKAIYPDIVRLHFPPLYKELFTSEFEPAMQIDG
Experiment: RORα activity by luciferase reporter (miR-122 promoter) in Huh-7 cells
Assay type: cell-based
Procedure: Huh-7 cells were transfected with a luciferase reporter plasmid containing the miR-122 promoter (extends to −900 from the transcription start site) with intact wild-type (WT) RORα response element (RORE) or mutated RORE (mut). The cells were treated with Compound 1 one day (24 hours) post-transfection at the indicated concentrations. Luciferase expression was measured after 24 hours of treatment and normalized to Renilla Luciferase activity expressed from a co-transfected pRL plasmid. The pRL Vector, which provides constitutive expression of Renilla luciferase, was used in combination with a firefly luciferase vector to co-transfect cells. Expression of Renilla luciferase provides an internal control value to which expression of the experimental firefly luciferase reporter gene may be normalized.
Luciferase assay. For Luciferase assays, cells grown in 24 well plates were co-transfected with a luciferase reporter plasmid (50 ng) and 1 ng of Renilla Luciferase vector (PRL, Promega) using the TransIT-LT 1 (Mirus) transfection reagent (MIR 2300, Madison, WI). Firefly and Renilla luciferase activity was assessed using the Dual Luciferase Reporter Assay system (Promega). Readings were taken in triplicates on a Mithras LB 940 Luminometer (Berthold Technologies). […]
(§1) Following transfections, the cells were lysed with passive lysis buffer (Cat #E1941; Promega), shaking for 20 min at RT and transferred into appropriate 96-well plate. Firefly and Renilla luciferase activity was assessed using the Dual Luciferase Reporter Assay system (Cat #E1910; Promega) on a luminometer Mithras 2000 (Centro XZ, LB960, Berthold Technologies, Bad Wildbad, Germany). […] Readings were taken in triplicate.
as §1, with “room temperature (RT)” for “RT”, “into the” for “into”, “triplicates. […]” for “triplicate.”
After transfections, the cells were lysed with passive lysis buffer (catalog no. E1941, Promega), shaken for 20 minutes at room temperature, and transferred into the appropriate 96-well plate. Firefly and Renilla luciferase activity was assessed using the Dual Luciferase Reporter Assay system (catalog no. E1910, Promega) on a luminometer Mithras 2000 (Centro XZ, LB960; Berthold Technologies, Bad Wildbad, Germany). […] Readings were taken in triplicate.

Induction of MIR122 promoter, compared with screened set and SR1078 (Huh7, overnight, 1 μM tested compounds, 10 μM SR1078): most potent
Structure (SMILES): O=C1Nc2cc(C(=O)N3CCC(Cc4ccccc4)CC3)ccc2Nc2ccccc21 [Compound 1]
Luciferase expression from miR-122 promoter with mutated RORE (Huh-7, mutated RORE): negates activity; also recorded: no activity; also recorded: no induction
Luciferase expression from miR-122 promoter with WT RORE (Huh-7, wild-type RORE, 24 hours of treatment): dose-dependent increase; also recorded: induces expression of RORα-regulated luciferase; also recorded: increase expression of MIR122 promoter activity
